The source of these data is US4783462A, “3(2H)pyridazinone, and anti-allergic agent containing it” (Nissan Chemical Industries Ltd., priority 1985, dated 1988).

This experiment has as its system LTC4. Nature of the experiment: Antagonism in isolated guinea-pig trachea, Test method (i) (Table 3, given as LTC4 antagonism). The format is cell-based. Particulars: Cavia porcellus, 5 min, test compound 10^-5 g/ml, given as LTC4 antagonisms. The method, then:
(i) LTC4 and LTD4 antagonisms in guinea-pig trachea
Antagonisms for LTC4 and LTD4 were determined in isolated guinea-pig trachea prepared as spiral strip. Tracheal preparations were suspended under 1 g tension in 10 ml organ baths and they were incubated for 1 hr prior to use. Contractile responses to LTC4 (2×10^-8 g/ml) and LTD4 (2×10^-8 g/ml) were obtained after the maximal response to histamine (10^-4 M). Test compounds dissolved in 100% dimethyl sulfoxide were added to the organ baths (final concentration of 10^-5 g/ml or 10^-6 g/ml) 5 min prior to LTC4 and LTD4 addition, and then contractile responses to LTC4 and LTD4 were compared with those of control which was obtained from a paired trachea in the absence of test compounds. LTC4 - and LTD4 -induced contractions were expressed as a percentage of the maximal response to histamine. The antagonism was determined as follows:
Antagonism (%)=(1.0-% contraction in test/% contraction in […]
The inhibition is how much of the control response was suppressed. A higher inhibition goes with a response far below the control. Regarding `CCCc1cc(-c2nnn[nH]2)ccc1OCCCNc1cnn(C(C)(C)C)c(=O)c1Cl` [Compound No. 2, 4-Chloro-5-{3-[2-n-propyl-4-(1H-tetrazol-5-ylphenoxy)]propylamino}-2-t-butyl-3(2H)pyridazinone], testing at 10 µg/mL gave an inhibition of 15%.

In turn, `CCCc1cc(C(=O)OC)ccc1OCCCNc1cnn(C(C)(C)C)c(=O)c1Cl` [Compound No. 3] returned an inhibition at 10 µg/mL of 28%.

The compound `CCOC(=O)c1ccc(OCCCNc2cnn(C(C)(C)C)c(=O)c2Cl)c(Cl)c1` [Compound No. 8] came in with an inhibition at 10 µg/mL of 32%.

For the compound `CC(C)(C)n1ncc(NCCCOc2ccc(C(=O)O)cc2Cl)c(Cl)c1=O` [Compound No. 9], the inhibition at 10 µg/mL amounted to 14%.

As to `CCn1ncc(NCCCOc2ccc(C(=O)O)cc2Cl)c(Cl)c1=O` [Compound No. 11], the inhibition at 10 µg/mL was determined as 13%.

In the case of `CCCc1cc(C(=O)O)ccc1OCCCNc1cnn(C)c(=O)c1Cl` [Compound No. 12], at 10 µg/mL the inhibition was 35%.

In turn, `Cc1ccc(S(=O)(=O)OCCCNc2cnn(C(C)(C)C)c(=O)c2Cl)cc1` [Compound No. 15, 4-Chloro-5-[3-(4-methylphenylsulfonyloxy)propylamino]-2-t-butyl-3(2H)pyridazinone] yielded an inhibition at 10 µg/mL of 40%.

In the case of `COc1ccc(CCNc2cnn(C(C)(C)C)c(=O)c2Cl)cc1OC` [Compound No. 16], the inhibition at 10 µg/mL is 31%.

Regarding `CCn1ncc(NCCCOC(=O)c2ccc(Cl)cc2)c(Cl)c1=O` [Compound No. 17], the inhibition at 10 µg/mL amounted to 45%.

Compound `CCn1ncc(NCCc2ccc(OC)c(OC)c2)c(Cl)c1=O` [Compound No. 18] displayed an inhibition at 10 µg/mL of 20%.

With `CCOC(=O)c1ccc(OCCCOc2cnn(CC)c(=O)c2Cl)c(Cl)c1` [Compound No. 30, 4-Chloro-5-[3-(2-chloro-4-ethoxycarbonylphenoxy)propoxy]-2-ethyl-3(2H)pyridazinone], testing at 10 µg/mL gave an inhibition of 40%.

For the compound `CCCc1c(OCCCOc2cnn(C(C)(C)C)c(=O)c2Cl)ccc(C(C)=O)c1O` [Compound No. 37, 4-Chloro-5-[3-(2-n-propyl-3-hydroxy-4-acetylphenoxy)propoxy]-2-t-butyl-3(2H)pyridazinone], the inhibition at 10 µg/mL turned out to be 40%.

Regarding `CCCc1cc(C(=O)OCC)ccc1OCCCNc1cnn(C(C)C)c(=O)c1` [Compound No. 63, 5-[3-(2-n-propyl-4-ethoxycarbonylphenoxy)propylamino]-2-i-propyl-3(2H)pyridazinone], testing at 10 µg/mL gave an inhibition of 54%.

Take `CCCc1cc(C(=O)OC)ccc1OCCCN(C)c1cnn(C(C)C)c(=O)c1Cl` [Compound No. 73, 4-Choloro-5-[3-(2-n-propyl-4-methoxycarbonylphenoxy)propyl-N-methylamino]-2-i-propyl-3(2H)pyridazinone]: the inhibition at 10 µg/mL is 48%.

`CCc1cc(C=O)ccc1OCCCNc1cnn(CC)c(=O)c1Cl` [Compound No. 92, 4-chloro-5-[3-(2-ethyl-4-formylphenoxy)propylamino]-2-ethyl-3(2H) pyridazinone]: the inhibition at 10 µg/mL came out at 100%.

For `CCc1cc(C=CC(=O)O)ccc1OCCCNc1cnn(CC)c(=O)c1Cl` [Compound No. 93, 4-Chloro-5-{3-[2-ethyl-4-(2-carboxyethenyl)phenoxy]propylamino}-2-ethyl-3(2H)pyridazinone], 10 µg/mL produced 79% inhibition.

Take `CCCc1cc(O)ccc1OCCCNc1cnn(CC)c(=O)c1Cl` [Compound No. 108, 4-Chloro-5-[3-(2-n-propyl-4-hydroxyphenoxy)propylamino]-2-ethyl-3(2H)pyridazinone]: the inhibition at 10 µg/mL came to 94%.

Consider `Cc1ccc(S(=O)(=O)OCC(O)CNc2cnn(C(C)C)c(=O)c2Cl)cc1` (stereo not drawn) [Compound No. 143, 4-Chloro-5-[3-(4-methylphenylsulfonyloxy)-2-hydroxypropylamino]-2-i-propyl-3(2H)pyridazinone], for which the inhibition at 10 µg/mL is 26%.

`CCCc1cc(C#N)ccc1SCC(O)CNc1cnn(C(C)C)c(=O)c1Cl` (stereo not drawn) [Compound No. 153, 4-Chloro-5-[3-(2-n-propyl-4-cyanothiophenoxy)-2-hydroxypropylamino]-2-i-propyl-3(2H)pyridazinone] showed an inhibition at 10 µg/mL of 64%.

As to `CCCc1cc(C(=O)O)ccc1SCC(O)CNc1cnn(C(C)C)c(=O)c1Cl` (stereo not drawn) [Compound No. 154, 4-Chloro-5-[3-(2-n-propyl-4-carboxythiophenoxy)-2-hydroxypropylamino]-2-i-propyl-3(2H)pyridazinone], the inhibition at 10 µg/mL was 20%.

Regarding `CCCc1cc(C(=O)OC)ccc1SCC(O)CNc1cnn(C(C)C)c(=O)c1Cl` (stereo not drawn) [Compound No. 155, 4-Chloro-5-[3-(2-n-propyl-4-methoxycarbonylthiophenoxy)-2-hydroxypropylamino]-2-i-propyl-3(2H) pyridazinone], at 10 µg/mL the inhibition was 55%.

`CCCc1cc(C#N)ccc1OCC(CN(C)c1cnn(C(C)C)c(=O)c1Cl)OC` (stereo not drawn) [Compound No. 157, 4-Chloro-5-[3-(2-n-propyl-4-cyanophenoxv)-2-methoxypropyl-N-methylamino]-2-i-propyl-3(2H)pyridazinone] displayed an inhibition at 10 µg/mL of 62%.

On to `COC(=O)CCC(=O)c1ccc(OCC(O)CNc2cnn(C(C)C)c(=O)c2Cl)cc1` (stereo not drawn) [Compound No. 166, 4-chloro-5-{3-[4-(β-methoxycarbonylpropyonyl)phenoxy]-2-hydroxypropylamino}-2-i-propyl-3(2H) pyridazinone], for which at 10 µg/mL the inhibition was 25%.

In the case of `COC(=O)CC(C)C(=O)c1ccc(OCC(CN(C)c2cnn(C(C)C)c(=O)c2Cl)OC)cc1` (stereo not drawn) [Compound No. 167, 4-Chloro-5-{3-[4-(β-methoxycarbonyl-α-methylpropionyl)phenoxy]-2-methoxypropyl-N-methylamino}-2-i-propyl-3(2H)pyridazinone], testing at 10 µg/mL gave an inhibition of 30%.

With `CCCc1cc(C#N)ccc1OCC(O)COc1cnn(C(C)C)c(=O)c1Cl` (stereo not drawn) [Compound No. 171, 4-Chloro-5-[3-(2-n-propyl-4-cyanophenoxy)-2-hydroxypropoxy]-2-i-propyl-3(2H)pyridazinone], 10 µg/mL produced 66% inhibition.

On to `CCCc1cc(C#N)ccc1OCC(COc1cnn(C(C)C)c(=O)c1Cl)OC` (stereo not drawn) [Compound No. 172, 4-Chloro-5-[3-(2-n-propyl-4-cyanophenoxy)-2-methoxypropoxy]-2-i-propyl-3(2H)pyridazinone], for which the inhibition at 10 µg/mL was found to be 79%.

In turn, `CCCc1cc(C(=O)O)ccc1OCCCNc1cnn(C(C)(C)C)c(=O)c1Cl` [compound 5] showed an inhibition at 10 µg/mL of 33%.

In turn, `COc1ccc(CCNc2cnn(C(C)(C)C)c(=O)c2Cl)cc1` [compound 19] yielded an inhibition at 10 µg/mL of 60%.

In turn, `CCCc1c(OCCCOc2cnn(C(C)(C)C)c(=O)c2Cl)ccc2c(=O)cc(C(=O)O)oc12` [compound 24] displayed an inhibition at 10 µg/mL of 40%.

On to `CCCc1c(OCCCOc2cnn(C(C)(C)C)c(=O)c2CC)ccc2c(=O)cc(C(=O)OCC)oc12` [compound 26], for which the inhibition at 10 µg/mL stood at 15%.

The compound `CCn1ncc(OCCCOc2ccc(C(=O)O)cc2Cl)c(Cl)c1=O` [compound 31] gave an inhibition at 10 µg/mL of 19%.

Turning to `CCOC(=O)c1ccc(OCCCOc2cnn(C(C)(C)C)c(=O)c2Cl)c(Cl)c1` [compound 32], at 10 µg/mL the inhibition was 29%.

For the compound `CC(C)(C)n1ncc(OCCCOc2ccc(C(=O)O)cc2Cl)c(Cl)c1=O` [compound 33], 10 µg/mL produced 15% inhibition.

`COc1cccc(OCCCOc2cnn(C(C)(C)C)c(=O)c2Br)c1` [compound 34]: testing at 10 µg/mL gave an inhibition of 61%.

For the compound `CCCc1cc(-c2nn[nH]n2)ccc1OCCCNc1cnn(CC)c(=O)c1Cl` [compound 48], the inhibition at 10 µg/mL was 36%.

In turn, `CCOC(=O)c1ccc(OCCCNc2cnn(CC)c(=O)c2Cl)c(OC)c1` [compound 49] came in with an inhibition at 10 µg/mL of 57%.

Turning to `CCn1ncc(NCCCOc2ccccc2OC)c(Cl)c1=O` [compound 50], the inhibition at 10 µg/mL was found to be 35%.

Turning to `CCn1ncc(NCCCOc2ccc(C(=O)O)cc2OC)c(Cl)c1=O` [compound 52], the inhibition at 10 µg/mL was 23%.

`CCOc1ccc(OCCCNc2cnn(CC)c(=O)c2Cl)cc1` [compound 53] returned an inhibition at 10 µg/mL of 59%.

The compound `CCn1ncc(NCCCOc2ccc(C)cc2)c(Cl)c1=O` [compound 54] yielded an inhibition at 10 µg/mL of 64%.

`CCn1ncc(NCCCOc2ccc(OC)cc2)c(Cl)c1=O` [compound 56] registered an inhibition at 10 µg/mL of 62%.

The compound `CCn1ncc(NCCCOc2ccccc2C)c(Cl)c1=O` [compound 57] had an inhibition at 10 µg/mL of 83%.

`COc1ccc(OCCCNc2cnn(C(C)C)c(=O)c2Cl)cc1` [compound 58] showed an inhibition at 10 µg/mL of 88%.

Take `COc1ccccc1OCCCNc1cnn(C(C)C)c(=O)c1Cl` [compound 59]: the inhibition at 10 µg/mL turned out to be 82%.

The compound `CCCc1cc(C#N)ccc1SCCCNc1cnn(C(C)C)c(=O)c1Cl` [compound 61] displayed an inhibition at 10 µg/mL of 73%.

Compound `CCCc1cc(C(=O)O)ccc1SCCCNc1cnn(C(C)C)c(=O)c1Cl` [compound 62] had an inhibition at 10 µg/mL of 57%.

For `CC(C)n1ncc(NCCc2ccc(O)cc2)c(Cl)c1=O` [compound 66], 10 µg/mL produced 69% inhibition.

As to `CCCc1cc(-c2nnn[nH]2)ccc1SCCCNc1cnn(C(C)C)c(=O)c1Cl` [compound 68], the inhibition at 10 µg/mL amounted to 33%.

Compound `C=CCc1cc(C(=O)O)ccc1OCCCNc1cnn(C(C)C)c(=O)c1Cl` [compound 70] displayed an inhibition at 10 µg/mL of 65%.

The compound `CC(C)n1ncc(NCCCOc2ccc(C(=O)CCC(=O)O)cc2)c(Cl)c1=O` [compound 75] had an inhibition at 10 µg/mL of 16%.

For `COC(=O)CCC(=O)c1ccc(OCCCNc2cnn(C(C)C)c(=O)c2Cl)cc1` [compound 76], the inhibition at 10 µg/mL was found to be 57%.
